Patent publication US5482941A, “Quinazolinone antianginal agents” (Pfizer Inc., priority 1991, dated 1996)

How the values were obtained:
rabbit = assay: Safety profile, acute toxicity in rabbit; assay type: in vivo
cGMP-inhibited cAMP PDE = target: T1, cGMP-inhibited cAMP PDE (Oryctolagus cuniculus, UniProt G1ST54); assay: In vitro inhibition of cGMP-inhibited cAMP PDE; assay type: biochemical; conditions: cGMP-inhibited cAMP PDE from rabbit platelets
T1 construct: The PDE enzymes are isolated from rabbit platelets and rat kidney; from tissue; host or cells: rabbit platelets
T1 sequence (G1ST54 1-1128): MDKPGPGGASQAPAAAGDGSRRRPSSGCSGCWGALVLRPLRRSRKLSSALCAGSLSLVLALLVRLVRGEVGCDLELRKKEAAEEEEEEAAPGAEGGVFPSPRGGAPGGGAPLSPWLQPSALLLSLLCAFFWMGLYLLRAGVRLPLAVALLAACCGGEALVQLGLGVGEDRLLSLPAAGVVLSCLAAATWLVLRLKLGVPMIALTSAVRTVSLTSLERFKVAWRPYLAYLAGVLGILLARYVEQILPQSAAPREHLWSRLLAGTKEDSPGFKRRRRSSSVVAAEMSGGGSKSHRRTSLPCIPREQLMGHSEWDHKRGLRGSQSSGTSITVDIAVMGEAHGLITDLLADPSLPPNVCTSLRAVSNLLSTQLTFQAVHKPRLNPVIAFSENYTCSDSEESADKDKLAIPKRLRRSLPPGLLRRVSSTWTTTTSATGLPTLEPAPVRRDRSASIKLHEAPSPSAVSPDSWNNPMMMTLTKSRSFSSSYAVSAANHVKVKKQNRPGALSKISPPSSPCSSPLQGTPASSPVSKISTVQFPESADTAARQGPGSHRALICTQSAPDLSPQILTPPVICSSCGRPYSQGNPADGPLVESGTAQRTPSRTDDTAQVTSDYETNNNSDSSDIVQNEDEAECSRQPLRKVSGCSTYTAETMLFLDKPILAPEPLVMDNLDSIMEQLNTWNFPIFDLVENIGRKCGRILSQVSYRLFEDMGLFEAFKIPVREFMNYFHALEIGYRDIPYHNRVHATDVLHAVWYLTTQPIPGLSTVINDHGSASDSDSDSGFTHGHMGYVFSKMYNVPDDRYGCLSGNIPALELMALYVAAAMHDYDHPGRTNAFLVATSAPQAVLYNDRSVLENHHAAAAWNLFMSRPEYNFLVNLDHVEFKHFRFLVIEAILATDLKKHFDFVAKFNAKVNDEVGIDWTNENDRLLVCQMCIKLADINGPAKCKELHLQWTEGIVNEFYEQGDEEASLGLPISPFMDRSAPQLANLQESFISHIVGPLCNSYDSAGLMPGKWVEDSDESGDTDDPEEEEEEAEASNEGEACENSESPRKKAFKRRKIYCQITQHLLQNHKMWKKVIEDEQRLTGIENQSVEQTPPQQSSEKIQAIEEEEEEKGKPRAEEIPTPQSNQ
Description: (§1) Phosphodiesterase activity
(§2) Compound affinities for cGMP and cAMP PDEs are assessed by determination of their IC50 values (the concentration of inhibitor required for 50% inhibition of enzyme activity). The PDE enzymes are isolated from rabbit platelets and rat kidney, essentially by the method of W. J. Thompson et al. (Biochem., 1971, 10, 311). The calcium/calmodulin (Ca/CAM)-independentcGMP PDE and the cGMP-inhibited cAMP PDE enzymes are obtained from rabbit platelets whilst, of the four major PDE enzymes of the rat kidney, the Ca/CAM-dependent cGMP PDE (fraction I) is isolated. Assays are performed using a modification of the "batch" method of W. J. Thompson and M. M. Appleman (Biochem., 1979, 18, 5228).

[1] = system: calcium/calmodulin (Ca/CAM)-independent cGMP PDE; assay: In vitro inhibition of Ca/CAM-independent cGMP PDE; assay type: biochemical, rabbit; conditions: between Ca/CAM-independent cGMP PDE and cGMP-inhibited cAMP PDE (IC50 cAMP / IC50 cGMP)
Description: as §1, §2

[2] = target: T2, calcium/calmodulin (Ca/CAM)-independent cGMP PDE (Oryctolagus cuniculus, UniProt G1SX67); assay: In vitro inhibition of Ca/CAM-independent cGMP PDE; assay type: biochemical, rabbit; conditions: Ca/CAM-independent cGMP PDE from rabbit platelets, in vitro
T2 construct: The PDE enzymes are isolated from rabbit platelets and rat kidney; from tissue; host or cells: rabbit platelets
Description: as §1, §2

| SMILES | IC50 (cGMP-inhibited cAMP PDE) | IC50 [2] | signs of adverse acute toxicity (rabbit; doses of up to 10 mg/kg i.d.) | SELECTIVITY RATIO [1] | signs of adverse acute toxicity (rabbit; doses of up to 1 mg/kg i.d.) |
| --- | --- | --- | --- | --- | --- |
| CCOc1ccc(S(=O)(=O)N2CCN(CCO)CC2)cc1-c1nc2cccc(C)c2c(=O)[nH]1 [Example 4, 2-{2-Ethoxy-5-[4-(2-hydroxyethyl)-1-piperazinylsulphonyl]phenyl}-5-methylquinazolin-4(3H)-one] |  |  | no signs of adverse acute toxicity being observed |  |  |
| CCOc1ccc(S(=O)(=O)N2CCN(CCO)CC2)cc1-c1nc2c(C)cccc2c(=O)[nH]1 [Example 5, 2-{2-Ethoxy-5-[4-(2-hydroxyethyl)-1-piperazinylsulphonyl]phenyl}-8-methylquinazolin-4(3H)-one] | > 100000 nM | 37 nM | no signs of adverse acute toxicity being observed | > 2,702 |  |
| CCCOc1ccc(S(=O)(=O)N2CCN(CCO)CC2)cc1-c1nc2c(C)cccc2c(=O)[nH]1 [Example 6] | > 100000 nM | 6.5 nM |  | > 15,384 |  |
| CCCOc1ccc(C=CC(=O)N2CCN(C)CC2)cc1-c1nc2c(C)cccc2c(=O)[nH]1 [Example 9] | > 100000 nM | 37 nM |  | > 2,702 | no signs of adverse acute toxicity being observed |
| CCCOc1ccc(C(C)=O)cc1-c1nc2c(C)cccc2c(=O)[nH]1 [Example 22, 2-(5-Acetyl-2-n-propoxyphenyl)-8-methylquinazolin-4(3H)-one] | > 100000 nM | 49 nM |  |  |  |

Further lines, with some results ahead:

| IC50 (cGMP-inhibited cAMP PDE) | IC50 [2] | SMILES | signs of adverse acute toxicity (rabbit; doses of up to 10 mg/kg i.d.) | SELECTIVITY RATIO [1] | signs of adverse acute toxicity (rabbit; doses of up to 1 mg/kg i.d.) |
| --- | --- | --- | --- | --- | --- |
| > 100000 nM | 54 nM | CCCOc1ccc(C=CC(=O)OC(C)(C)C)cc1-c1nc2c(C)cccc2c(=O)[nH]1 [Example 10, t-Butyl 3-(8-methylquinazolin-4(3H)-on-2-yl)-4-n-propoxycinnamate] |  | > 1,851 |  |
| > 100000 nM | 53 nM | CCOc1ccc(C(O)CN2CCOCC2)cc1-c1nc2c(C)cccc2c(=O)[nH]1 (centres unmarked) [Example 17, 2-[2-Ethoxy-5-(1-hydroxy-2-morpholinoethyl)phenyl]-8-methylquinazolin-4(3H)-one] |  | > 1,886 |  |
| 67000 nM | 34 nM | CCOc1ccc(S(=O)(=O)N2CCN(CCO)CC2)cc1-c1nc2c(C(N)=O)cccc2c(=O)[nH]1 [Example 19, 8-Carbamoy-2-{2-ethoxy-5-[4-(2-hydroxyethyl)-1-piperazinylsulphonyl]phenyl}quinazolin-4(3H)-one] |  | 1,970 |  |
| > 100000 nM | 14 nM | CCCOc1ccccc1-c1nc2c(C(=O)NCC)cccc2c(=O)[nH]1 [Example 21, 8-Ethylcarbamoyl-2-(2-n-propoxyphenyl)quinazolin-4(3H)-one] |  | > 7,142 |  |
